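Cells were grown in 96-well plates and exposed to each compound for 48 hours at five concentrations; endpoints were interpolated linearly between bracketing concentrations, or set to the highest concentration if not reached. GI50 is the concentration that inhibits growth by half.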 Activity calls are given as the source filed them. Cut-off read from the data, not from the text of the source: active = GI50 up to about 1.1 µM and inactive = higher.
What was measured:
Test in all cases: growth of human tumour cells (NCI), 48 h
DU-145 = tested on: DU-145
ACHN = tested on: ACHN
UACC-62 = tested on: UACC-62
OVCAR-8 = tested on: OVCAR-8
MOLT-4 = tested on: MOLT-4
RPMI-8226 = tested on: RPMI-8226
HOP-62 = tested on: HOP-62
A549 = tested on: A549
OVCAR-3 = tested on: OVCAR-3
SNB-19 = tested on: SNB-19
OVCAR-5 = tested on: OVCAR-5
HL-60 = tested on: HL-60
NCI/ADR-RES = tested on: NCI/ADR-RES
MDA-MB-435 = tested on: MDA-MB-435
SF-539 = tested on: SF-539
EKVX = tested on: EKVX
SN12C = tested on: SN12C
LOX IMVI = tested on: LOX IMVI
MDA-MB-231 = tested on: MDA-MB-231
SK-OV-3 = tested on: SK-OV-3

Compound | GI50 (DU-145) | GI50 (ACHN) | GI50 (UACC-62) | GI50 (OVCAR-8) | GI50 (MOLT-4) | GI50 (RPMI-8226) | GI50 (HOP-62) | GI50 (A549) | GI50 (OVCAR-3) | GI50 (SNB-19) | GI50 (OVCAR-5) | GI50 (HL-60) | GI50 (NCI/ADR-RES) | GI50 (MDA-MB-435) | GI50 (SF-539) | GI50 (EKVX) | GI50 (SN12C) | GI50 (LOX IMVI) | GI50 (MDA-MB-231) | GI50 (SK-OV-3)
CC(C)C(OC(=O)c1ccc(NCc2cc(O)ccc2O)cc1)C(C)C | 7.01 µM (inactive) | 1.02 µM (active) | 1.29 µM (inactive) | 1.4 µM (inactive) | 0.243 µM (active) | 0.194 µM (active) | 7.94 µM (inactive) | 5.77 µM (inactive) | 1.36 µM (inactive) | 1.29 µM (inactive) | 2.09 µM (inactive) | 0.135 µM (active) | 1.42 µM (inactive) | 1.29 µM (inactive) | 1.09 µM (active) | 1.81 µM (inactive) | 2.42 µM (inactive) | 0.776 µM (active) | 2.07 µM (inactive) | 
CC(=O)Nc1ccc(Nc2cc(O)nc(O)n2)cc1 | > 100 µM (inactive) | > 100 µM (inactive) |  | > 100 µM (inactive) | 18.2 µM (inactive) | > 100 µM (inactive) | > 100 µM (inactive) | > 100 µM (inactive) | > 100 µM (inactive) | > 100 µM (inactive) | > 100 µM (inactive) | > 100 µM (inactive) | > 100 µM (inactive) | > 100 µM (inactive) | > 100 µM (inactive) | > 100 µM (inactive) | > 100 µM (inactive) | > 100 µM (inactive) | > 100 µM (inactive) | 
O=C1C2Cc3c(n(C(=O)c4ccccc4)c4ccccc34)CC2C(=O)N1c1ccc(Nc2ccc(N3C(=O)C4Cc5c(n(C(=O)c6ccccc6)c6ccccc56)CC4C3=O)cc2)cc1 (stereo not given) | > 100 µM (inactive) | > 100 µM (inactive) | 61 µM (inactive) | > 100 µM (inactive) | > 100 µM (inactive) |  | > 100 µM (inactive) | > 100 µM (inactive) | > 100 µM (inactive) | > 100 µM (inactive) | > 100 µM (inactive) | 8.85 µM (inactive) | > 100 µM (inactive) | > 100 µM (inactive) |  | > 100 µM (inactive) | > 100 µM (inactive) | > 100 µM (inactive) | 24.3 µM (inactive) | > 100 µM (inactive)
CO/N=C(/C(=O)OC)c1ccccc1COc1ccccc1C(F)(F)F | 37 µM (inactive) | 83.6 µM (inactive) | 26.3 µM (inactive) | > 100 µM (inactive) | 15.1 µM (inactive) | 14.4 µM (inactive) | 63.8 µM (inactive) | 21.7 µM (inactive) | 23.8 µM (inactive) | 98.2 µM (inactive) | > 100 µM (inactive) | 10.5 µM (inactive) | 29.3 µM (inactive) | 24.4 µM (inactive) | 20.3 µM (inactive) | 11.3 µM (inactive) | 61.8 µM (inactive) |  | 80.9 µM (inactive) | 16.6 µM (inactive)
O=c1[nH]c2c(c(=O)[nH]1)SC(c1ccccc1)C2 (stereo not given) | > 100 µM (inactive) | > 100 µM (inactive) |  | > 100 µM (inactive) | > 100 µM (inactive) | > 100 µM (inactive) | > 100 µM (inactive) | > 100 µM (inactive) | > 100 µM (inactive) | > 100 µM (inactive) | > 100 µM (inactive) | > 100 µM (inactive) | > 100 µM (inactive) | > 100 µM (inactive) | > 100 µM (inactive) | 72.1 µM (inactive) |  | > 100 µM (inactive) | > 100 µM (inactive) | 
O=C(O)[C@H]1CCCN1CP(=O)(O)CN1CCC[C@@H]1C(=O)O | > 100 µM (inactive) | > 100 µM (inactive) | > 100 µM (inactive) | > 100 µM (inactive) | > 100 µM (inactive) |  | > 100 µM (inactive) | > 100 µM (inactive) | > 100 µM (inactive) | > 100 µM (inactive) | > 100 µM (inactive) | > 100 µM (inactive) | > 100 µM (inactive) | > 100 µM (inactive) |  | > 100 µM (inactive) | > 100 µM (inactive) | > 100 µM (inactive) | > 100 µM (inactive) | > 100 µM (inactive)
CCc1n[nH]c(=O)n1/N=C(\C)c1ccccc1 | > 100 µM (inactive) | > 100 µM (inactive) | > 100 µM (inactive) | > 100 µM (inactive) | > 100 µM (inactive) | > 100 µM (inactive) | > 100 µM (inactive) | > 100 µM (inactive) | > 100 µM (inactive) | > 100 µM (inactive) | > 100 µM (inactive) | > 100 µM (inactive) | > 100 µM (inactive) | > 100 µM (inactive) | > 100 µM (inactive) | 68.5 µM (inactive) | > 100 µM (inactive) | > 100 µM (inactive) | > 100 µM (inactive) | 
CC[C@]12C=CCN3CC[C@@]4(c5cc(N=O)c(OC)cc5N(C)[C@H]4[C@@](O)(C(=O)OC)[C@@H]1OC(C)=O)[C@@H]32 | > 100 µM (inactive) | 61.7 µM (inactive) | 51.4 µM (inactive) | > 100 µM (inactive) | 35.6 µM (inactive) |  | 61 µM (inactive) | 58.9 µM (inactive) | 48 µM (inactive) | > 100 µM (inactive) | > 100 µM (inactive) | 37.8 µM (inactive) | > 100 µM (inactive) | 25.1 µM (inactive) | 27.6 µM (inactive) | > 100 µM (inactive) | 34.3 µM (inactive) | 34.1 µM (inactive) | 39.4 µM (inactive) | > 100 µM (inactive)
CCOC(=O)C1=CN2C(=N[C@H]3CCCC[C@@H]32)NC1=O | > 100 µM (inactive) | > 100 µM (inactive) | > 100 µM (inactive) | > 100 µM (inactive) | > 100 µM (inactive) | > 100 µM (inactive) |  | > 100 µM (inactive) | > 100 µM (inactive) | > 100 µM (inactive) | > 100 µM (inactive) | > 100 µM (inactive) | > 100 µM (inactive) | > 100 µM (inactive) | > 100 µM (inactive) | > 100 µM (inactive) | > 100 µM (inactive) | > 100 µM (inactive) | > 100 µM (inactive) | > 100 µM (inactive)
Cc1ccc(N2C(=O)C3c4[nH]c5ccc(C)cc5c4C4CCC(C(C)(C)C)CC4C3C2=O)cc1 (stereo not given) | 17.8 µM (inactive) |  | 16.2 µM (inactive) | 9.62 µM (inactive) | 2.48 µM (inactive) | 12.9 µM (inactive) | 10.8 µM (inactive) | 13.6 µM (inactive) | 12.1 µM (inactive) | 26.5 µM (inactive) | 11.3 µM (inactive) | 17.3 µM (inactive) | 19.5 µM (inactive) | 17.7 µM (inactive) |  | 10.8 µM (inactive) | 12.6 µM (inactive) | 15 µM (inactive) | 10.3 µM (inactive) | 
CN1CCC(O)(C(C)(C)C)CC1 | > 100 µM (inactive) | > 100 µM (inactive) | > 100 µM (inactive) | > 100 µM (inactive) | > 100 µM (inactive) | > 100 µM (inactive) | > 100 µM (inactive) | > 100 µM (inactive) | > 100 µM (inactive) | > 100 µM (inactive) | > 100 µM (inactive) | > 100 µM (inactive) | > 100 µM (inactive) | > 100 µM (inactive) |  | > 100 µM (inactive) | > 100 µM (inactive) | > 100 µM (inactive) | > 100 µM (inactive) | > 100 µM (inactive)
O=C(O)C1(Nc2ccc(Cl)cc2)CCCC1 | > 100 µM (inactive) | > 100 µM (inactive) | > 100 µM (inactive) | > 100 µM (inactive) |  | > 100 µM (inactive) | > 100 µM (inactive) | > 100 µM (inactive) | > 100 µM (inactive) | > 100 µM (inactive) | > 100 µM (inactive) | 77.8 µM (inactive) | > 100 µM (inactive) | > 100 µM (inactive) |  | > 100 µM (inactive) | > 100 µM (inactive) | > 100 µM (inactive) | > 100 µM (inactive) | > 100 µM (inactive)
CCOC(=O)CNC(=O)C(CSCC1C(=O)Nc2ccccc21)NC(=O)CCC(N)C(=O)OCC (stereo not given) | 3.75 µM (inactive) | 1.62 µM (inactive) | 1.57 µM (inactive) | 2.81 µM (inactive) |  | 1.27 µM (inactive) | 2.1 µM (inactive) | 2.34 µM (inactive) | 2.01 µM (inactive) | 7.46 µM (inactive) | 1.84 µM (inactive) | 2.36 µM (inactive) | 1.08 µM (active) | 1.32 µM (inactive) | 0.247 µM (active) | 1.75 µM (inactive) | 1.52 µM (inactive) | 0.46 µM (active) | 1.58 µM (inactive) | 
CC(C)[Si](OC12CCC(CC1O)CC2CO)(C(C)C)C(C)C (stereo not given) | 16.9 µM (inactive) | 14.2 µM (inactive) | 14.9 µM (inactive) | 16.2 µM (inactive) | 11.5 µM (inactive) | 10.2 µM (inactive) | 16.4 µM (inactive) | 10.4 µM (inactive) | 14.5 µM (inactive) | 15.3 µM (inactive) | 17.4 µM (inactive) | 1.34 µM (inactive) | 15 µM (inactive) | 16.1 µM (inactive) | 23.4 µM (inactive) |  | 22 µM (inactive) |  | 19.7 µM (inactive) | 14.4 µM (inactive)
Cc1ccc(-n2cc(-c3ccc(Cl)cc3)c3c(NN)ncnc32)cc1 | 3.49 µM (inactive) | 3.31 µM (inactive) | 2.67 µM (inactive) | 3.24 µM (inactive) | 2.36 µM (inactive) |  | 2.43 µM (inactive) | 3.26 µM (inactive) | 0.357 µM (active) | 2.93 µM (inactive) | 6.43 µM (inactive) | 2.1 µM (inactive) | 3.64 µM (inactive) | 4.65 µM (inactive) | 2.51 µM (inactive) | 3.3 µM (inactive) | 2.84 µM (inactive) | 4.68 µM (inactive) | 6.89 µM (inactive) | 5.14 µM (inactive)

— ChEMBL document CHEMBL1201862, “PubChem BioAssay data set” (2004)
